# Source: PMC9029599, “Cytotoxicity and Antiviral Properties of Alkaloids Isolated from Pancratium maritimum” (Toxins, 2022)
# Where two headings read alike, the source gives them in different places.
# Legend:
# [1] = tested on: DENVGFP; test: microbe, parasite or virus in culture; format: cell-based, dengue virus
# [2] = Cytotoxicity in THP-1 cells (ATP levels, Cell-Titer GLO); settings: human
# Protocol: (§1) To account for non-specific antiviral activity caused by enhanced cell death, the cytotoxicity of P. maritimum isolated AAs was first determined in THP-1 and Huh7 virus-targeted cell lines exposed to concentrations ranging from 0.05 to 200 µM for 72 h. Cell viability was measured using ATP levels as a marker.
# (§2) The monocytic cell line THP-1 derived from an acute monocytic leukemia patient was used in HIV-1GFP infection assays, while the hepatocyte-derived carcinoma cell line Huh7 was used with DENVGFP. Cell viability was evaluated using the Cell-Titer GLO assay kit (Promega, Madison, WI, USA) as previously described. Briefly, 7.5 × 10^3 Huh7 cells/well or 4 × 10^4 THP-1 cells/well were seeded in 96-well dark plates and treated with isolated AAs dissolved in methanol at concentrations ranging from 0.05 to 200 µM for 72 h. Afterwards, Cell-Titer GLO reagent was added in each well of room temperature-equilibrated plates. Luminescence was measured 10 min after shaking the plates for 2 min using a microplate spectrophotometer (Synergy H1, Biotek, Québec, QC, Canada). The percentage of viable cells was calculated at each concentration relatively to cells treated with matched concentrations of MetOH.
# [3] = in vitro; settings: human
# Protocol: as §1, §2
# [4] = tested on: Huh7 cells; test: Cytotoxicity in Huh7 cells (ATP levels, Cell-Titer GLO)
# Protocol: as §1, §2
# [5] = tested on: VSV-G-pseudotyped HIV-1GFP; test: cells; format: cell-based, human immunodeficiency virus-1; settings: for EC50: read-out: EC50 HIVGFP
# [6] = tested on: AGS cells; test: MTT viability test, AGS cells; format: cell-based; settings: for IC50: Homo sapiens, AGS; for cytotoxic activity on AGS cells: in words; for effect on AGS cell viability: 0.5 to 50 µM, 24 and 48 h
# Protocol: (§3) The potential cytotoxic activity of P. maritimum alkaloids was evaluated on Hacat, A431 and AGS cells treated with concentrations ranging from 0.5 to 10 µM for 24 and 48 h by measuring the reduction of 3-(4,5-dimethylthiazol-2) 2,5- diphenyltetrazolium bromide (MTT) to formazan by the mitochondrial enzyme succinate dehydrogenase.
# (§4) HaCaT, spontaneously immortalized keratinocytes from adult skin, and AGS gastric adenocarcinoma cells were purchased from Service Cell Line (GmBH, Eppelheim, CLS, Germany). A431 (ATCC-CRL1555) human epidermoid carcinoma cells were from American Type Culture Collection (ATCC, Manassas, VA, USA). All mentioned cell lines were cultured in Dulbecco’s Modified Eagle’s Medium (DMEM, Sigma Chemical Co., St. Louis, MO, USA) supplemented with 10% fetal bovine serum (FBS, Hyclone Laboratories, Inc. Logan, UT, USA) at 37 °C in a humidified atmosphere of 5% CO2. Absence of mycoplasma contamination was verified for all cell lines. The purified alkaloids were resuspended in DMSO and added to the cell medium at concentrations varying from 0.5 to 50 µM as indicated.
# Cell viability was evaluated by measuring the reduction of 3-(4,5-dimethylthiazol-2) 2,5-diphenyltetrazolium bromide (MTT) to formazan by the mitochondrial enzyme succinate dehydrogenase. Briefly, 10 × 10^3 cells were seeded on 96-well plates and exposed to different concentrations of total extract or metabolites for 48 h. and 72 h. MTT/PBS solution (0.5 mg/mL) was then added to the wells and incubated for 3 h at 37 °C in a humidified atmosphere. The reaction was stopped by removal of the supernatant followed by dissolving the formazan product in acidic isopropanol and the optical density was measured with Synergy H4 microplate reader Gen5 2.07 (Thermofisher, Waltham, MA, USA) using a 570 nm filter. Under these experimental conditions, no undissolved formazan crystals were observed. Cell viability was assessed by comparing the optical density of the treated samples compared to the controls. […] Data were represented as the mean standard deviation and analyzed for statistical significance using ordinary one-way analysis of variance (ANOVA) and multiple comparisons. For all tests, p < 0.05 was considered to indicate a statistically significant difference.
# [7] = tested on: THP-1 cells; test: in vitro; settings: 72 h; for live THP-1 cells: 6.25 µM
# Protocol: as §1, §2
# [8] = tested on: Hacat cells; settings: for cytotoxic activity on Hacat cells: in words; for reduction of Hacat cell viability: 10 µM, 24 h of treatment, MTT
# Protocol: as §3, §4
# (§5) Cell viability was evaluated by measuring the reduction of 3-(4,5-dimethylthiazol-2) 2,5-diphenyltetrazolium bromide (MTT) to formazan by the mitochondrial enzyme succinate dehydrogenase. Briefly, 10 × 10^3 cells were seeded on 96-well plates and exposed to different concentrations of total extract or metabolites for 48 h. and 72 h. MTT/PBS solution (0.5 mg/mL) was then added to the wells and incubated for 3 h at 37 °C in a humidified atmosphere. The reaction was stopped by removal of the supernatant followed by dissolving the formazan product in acidic isopropanol and the optical density was measured with Synergy H4 microplate reader Gen5 2.07 (Thermofisher, Waltham, MA, USA) using a 570 nm filter. Under these experimental conditions, no undissolved formazan crystals were observed. Cell viability was assessed by comparing the optical density of the treated samples compared to the controls. Statistical analyses were carried out using the GraphPad Prism version 8.1.2 (https://www.graphpad.com/scientific-software/prism/ (accessed on 18 December 2021)). Data were represented as the mean standard deviation and analyzed for statistical significance using ordinary one-way analysis of variance (ANOVA) and multiple comparisons. For all tests, p < 0.05 was considered to indicate a statistically significant difference.
# [9] = tested on: A431 cells; settings: for cytotoxic activity on A431 cells: in words; for reduction of A431 cell viability: 10 µM, 24 h of treatment, MTT
# Protocol: as §3, §4, §5
# [10] = tested on: Hacat cells; test: cells; settings: Homo sapiens, read-out: IC50 Hacat
# Protocol: as §3, §4, §5
# [11] = tested on: A431 cells; test: cells; settings: Homo sapiens, A-431, read-out: IC50 A431
# Protocol: as §3, §4, §5
# [12] = Dengue virus, Huh-7, 72 h, read-out: EC50 DENVGFP, Huh7 cells, MOI = 0.02, 72 h
# [13] = read-out: EC50 DENVGFP, Huh7 cells, MOI = 0.02, 72 h
# [14] = MTT, time not stated, read-out: IC50 AGS
# [15] = Dengue virus, Huh-7, read-out: EC50 DENV, Huh7 cells
smiles,measurement,setting,value
COc1cc2c(cc1OC)[C@H]1[C@H]3C(=CC[C@H]1OC2=O)CCN3C [Homolycorine],EC50,[1]; [12],65 µM
same,EC50,[1]; [13],65 µM
OC1C=CC23c4cc5c(cc4CN(CC2O)C3C1)OCO5 (centres unmarked) [11-Hydroxyvittatine],"viability at 72 h, 100 µM",[2],52.3%
same,CC50 at 72 h,"[2]; CC50 THP-1, 72 h, ATP levels",113 µM
same,"viability at 72 h, 50 µM",[3],73.8%
same,concentration at which Huh7 cell viability is reduced,[4]; 72 h,higher than 50 µM
same,"inhibition of HIV-1GFP, dose dependence",[5],dose-dependent inhibition of HIV-1
same,EC50,"[5]; Homo sapiens, THP-1, 72 h",65.1 µM
same,EC50,[1]; [12],3.92 µM
CO[C@@H]1C=C[C@@]23c4cc5c(cc4CN(CCc4ccc(O)cc4)[C@@H]2C(=O)N(C)[C@H]3C1)OCO5 [Obliquine],"viability at 72 h, 100 µM",[2],55.3%
same,CC50 at 72 h,"[2]; CC50 THP-1, 72 h, ATP levels",127 µM
same,"viability at 72 h, 100 µM",[3]; Huh7 hepatocyte-derived carcinoma cells,82.6%
same,concentration at which Huh7 cell viability is reduced,[4]; 72 h,100 µM
same,"inhibition of HIV-1GFP, dose dependence",[5],dose-dependent inhibition of HIV-1
same,EC50,"[5]; Homo sapiens, THP-1, 72 h",153 µM
same,EC50,[1]; [12],73.6 µM
same,EC50,[1]; [13],73.6 µM
O[C@H]1[C@H]2c3cc4c(cc3CN3CCC(=C[C@@H]1O)[C@H]23)OCO4 [Lycorine],IC50,[6]; [14],< 0.5 µM
same,cytotoxic activity on AGS cells,[6],showed cytotoxic activity
same,CC50 at 72 h,[2]; CC50 THP-1,4.6 µM
same,CC50,[7]; human,4.61 µM
same,reduction of Huh7 viability,"[4]; 0.78 µM, 72 h",21%
same,reduction of Huh7 cell viability,[4]; 1.56 µM,25%
same,HIV-1GFP inhibition at 100 µM,[5],Complete viral inhibition
same,"inhibition of HIV-1GFP, dose dependence",[5],dose-dependent inhibition of HIV-1
same,EC50,"[5]; Homo sapiens, THP-1, 72 h",10.9 µM
same,DENVGFP inhibition at 1.56 µM,[1]; Huh7 cells,Complete inhibition
same,EC50,[1]; [12],0.386 µM
same,EC50,[1]; [13],0.39 µM
same,cytotoxic activity on Hacat cells,[8],showed cytotoxic activity
same,cytotoxic activity on A431 cells,[9],showed cytotoxic activity
same,IC50,[10],0.5 µM
same,IC50,[11],0.5 µM
COC1C=CC23c4cc5c(cc4CN(CC2O)C3C1)OCO5 (centres unmarked) [Haemanthamine],IC50,"[6]; 24 h, read-out: IC50 AGS cells at 24 h",7.5 µM
same,IC50,"[6]; MTT, 48 h, read-out: IC50 AGS cells at 48 h",7.5 µM
same,IC50,[6]; [14],7.5 µM
same,CC50 at 72 h,"[2]; CC50 THP-1, 72 h, ATP levels",22.2 µM
same,live THP-1 cells,[7],71%
same,concentration at which THP-1 cell viability begins to decrease,[7],3.125 µM
same,CC50,"[7]; read-out: CC50 THP-1, ATP levels",22.2 µM
same,live Huh7 cells,"[4]; 3.125 µM, 72 h",82.2%
same,concentration at which Huh7 cell viability is reduced,[4]; 72 h,above 3.125 µM
same,HIV-1GFP inhibition at 100 µM,[5],Complete viral inhibition
same,"inhibition of HIV-1GFP, dose dependence",[5],dose-dependent inhibition of HIV-1
same,EC50,"[5]; Homo sapiens, THP-1, 72 h",25.3 µM
same,EC50,[5],25.3 µM
same,DENVGFP inhibition at 1.56 µM,[1]; Huh7 cells,Complete inhibition
same,EC50,[1]; [12],0.34 µM
same,EC50,[1]; [15],0.337 µM
same,reduction of Hacat cell viability,[8],15–30%
same,reduction of A431 cell viability,[9],15–30%
OC1C=C2C3CN(Cc4cc5c(cc43)OCO5)C2CC1O (centres unmarked) [Pancracine],CC50 at 72 h,"[2]; CC50 THP-1, 72 h, ATP levels",25.9 µM
same,live THP-1 cells,[7],82%
same,concentration at which THP-1 cell viability begins to decrease,[7],3.125 µM
same,live Huh7 cells,"[4]; 6.25 µM, 72 h",78.1%
same,concentration at which Huh7 cell viability is reduced,[4]; 72 h,6.25 µM
same,HIV-1GFP inhibition at 100 µM,[5],Complete viral inhibition
same,"inhibition of HIV-1GFP, dose dependence",[5],dose-dependent inhibition of HIV-1
same,EC50,"[5]; Homo sapiens, THP-1, 72 h",18.5 µM
same,EC50,[5],18.5 µM
same,DENVGFP inhibition at 1.56 µM,[1]; Huh7 cells,Complete inhibition
same,EC50,[1]; [12],0.358 µM
same,EC50,[1]; [15],0.357 µM
same,EC50,[1]; [13],0.36 µM
O[C@@H]1C=C[C@]23CCN(Cc4cc5c(cc42)OCO5)[C@H]3C1 [Vittatine],EC50,[1]; [12],15.5 µM
"Cc1nnc(C(=O)NC(C)(C)c2nc(C(=O)NCc3ccc(F)cc3)c(O)c(=O)n2C)o1 [Raltegravir, reference compound]",HIV-1 infection with positive control,[5],completely impeded HIV-1 infection
CO[C@@H]1C=C[C@@]23c4cc5c(cc4CO[C@]2(O)CN(C)[C@H]3C1)OCO5 [Tazettine],"viability at 72 h, 100 µM",[2],60.9%
same,CC50 at 72 h,"[2]; CC50 THP-1, 72 h, ATP levels",137 µM
same,"viability at 72 h, 50 µM",[3],85.2%
same,concentration at which Huh7 cell viability is reduced,"[4]; human, 72 h",higher than 50 µM
same,"inhibition of HIV-1GFP, dose dependence",[5],dose-dependent inhibition of HIV-1
same,EC50,"[5]; Homo sapiens, THP-1, 72 h",120 µM
same,EC50,[1]; [12],12.5 µM
same,reduction of Hacat cell viability,[8],15–30%
same,reduction of A431 cell viability,[9],15–30%
"COC1C=CC23c4cc5c(cc4C(OC(=O)c4ccc(Br)cc4)N(CC2OC(=O)c2ccc(Br)cc2)C3C1)OCO5 (centres unmarked) [compound 12, 6,11-O,O′-Di-p-Bromobenzoyl Ester of haemanthidine]",effect on AGS cell viability,[6]; MTT,able to reduce AGS cell viability
CO[C@@H]1C=C[C@@]23c4cc5c(cc4C(O)N(C[C@@H]2O)[C@H]3C1)OCO5 (some centres unmarked) [Haemanthidine],IC50,[6]; [14],5 µM
same,cytotoxic activity on AGS cells,[6],showed cytotoxic activity
same,CC50 at 72 h,"[2]; CC50 THP-1, 72 h, ATP levels",16.8 µM
same,live THP-1 cells,[7],71%
same,concentration at which THP-1 cell viability begins to decrease,[7],3.125 µM
same,live Huh7 cells,"[4]; 6.25 µM, 72 h",83.3%
same,concentration at which Huh7 cell viability is reduced,[4]; 72 h,6.25 µM
same,HIV-1GFP inhibition at 100 µM,[5],Complete viral inhibition
same,"inhibition of HIV-1GFP, dose dependence",[5],dose-dependent inhibition of HIV-1
same,EC50,"[5]; Homo sapiens, THP-1, 72 h",12.7 µM
same,EC50,[5],12.7 µM
same,DENVGFP inhibition at 1.56 µM,[1]; Huh7 cells,Complete inhibition
same,EC50,[1]; [12],0.48 µM
same,EC50,[1]; [15],0.476 µM
same,reduction of Hacat cell viability,[8],15–30%
same,cytotoxic activity on Hacat cells,[8],showed cytotoxic activity
same,reduction of A431 cell viability,[9],15–30%
same,cytotoxic activity on A431 cells,[9],showed cytotoxic activity
"COC1C=CC23c4cc5c(cc4C(OC(=O)c4ccc(Br)cc4)N(CC2OC(=O)c2ccc(Br)cc2)C3C1)OCO5 (centres unmarked) [compound 11, 6,11-O,O′-Di-p-Bromobenzoyl Ester of haemanthidine]",effect on AGS cell viability,[6]; MTT,able to reduce AGS cell viability
